Data as given in ChEMBL document CHEMBL1201862, “PubChem BioAssay data set” (2004).
Each block holds one compound with its values, some of them ahead of it. Active and inactive are the calls of the source.

How the values were obtained:
[1] = Mcl1-dependent cancer cell viability – HMC-1-8 cells, luminescence, dry powder, selectivity assay for A1 inhibitor project, dose response (AID 504415); format: functional, cell-based; settings: Homo sapiens
[2] = test system: INS1; experiment: INS-1E mitochondrial potential rescue under cytokines – cell-based, JC-1 fluorescence ratio, dry powder, dose response (AID 488931); format: functional; settings: Rattus norvegicus
[3] = test system: INS1; experiment: suppression of NO production in INS-1E cells – cell-based, Griess absorbance, dry powder, set 2, dose response (AID 488868); format: functional; settings: Rattus norvegicus
[4] = test system: INS1; experiment: beta-cell survival under cytokine stress – INS-1E, ATP luminescence, dry powder, dose response (AID 488844); format: functional, cell-based; settings: Rattus norvegicus
[5] = biological target: Megakaryocyte-associated tyrosine-protein kinase (Homo sapiens, UniProt P42679); format: functional;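 note: affinity measured as one member of a kinase panel (Navigating the Kinome) against MATK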
[6] = biological target: MAP kinase-activated protein kinase 3 (Homo sapiens, UniProt Q16644); format: functional;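 note: value comes from a kinome-wide profiling panel in which MAPKAPK3 is one of the panel members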
[7] = biological target: Aurora kinase B (Homo sapiens, UniProt Q96GD4); format: functional
[8] = biological target: Dual specificity tyrosine-phosphorylation-regulated kinase 1A (Homo sapiens, UniProt Q13627); format: functional;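 note: measured against DYRK1A as one member of a broad kinome profiling panel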
[9] = biological target: Serine/threonine-protein kinase pim-3 (Homo sapiens, UniProt Q86V86); format: functional;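 note: value obtained as one member of a broad kinase panel profiling effort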
[10] = biological target: Ribosomal protein S6 kinase beta-1 (Homo sapiens, UniProt P23443); format: functional;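 note: measured as one member of a kinome-wide profiling panel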
Chain of Ribosomal protein S6 kinase beta-1 (P23443 whole entry): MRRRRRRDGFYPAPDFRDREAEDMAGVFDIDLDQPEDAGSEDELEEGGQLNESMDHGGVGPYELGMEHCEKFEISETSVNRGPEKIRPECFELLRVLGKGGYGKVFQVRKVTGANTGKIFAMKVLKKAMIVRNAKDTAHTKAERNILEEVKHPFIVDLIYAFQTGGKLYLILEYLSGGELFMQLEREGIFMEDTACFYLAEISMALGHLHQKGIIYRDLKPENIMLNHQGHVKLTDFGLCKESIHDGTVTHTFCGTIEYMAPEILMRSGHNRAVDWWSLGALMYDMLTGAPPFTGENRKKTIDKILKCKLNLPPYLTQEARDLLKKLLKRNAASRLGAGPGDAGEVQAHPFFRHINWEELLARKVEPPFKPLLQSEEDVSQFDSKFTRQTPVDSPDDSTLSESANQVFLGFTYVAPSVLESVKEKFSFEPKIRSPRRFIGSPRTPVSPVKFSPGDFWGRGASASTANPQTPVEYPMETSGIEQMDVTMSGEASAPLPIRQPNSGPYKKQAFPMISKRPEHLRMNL

Chain of MAP kinase-activated protein kinase 3 (Q16644 whole entry): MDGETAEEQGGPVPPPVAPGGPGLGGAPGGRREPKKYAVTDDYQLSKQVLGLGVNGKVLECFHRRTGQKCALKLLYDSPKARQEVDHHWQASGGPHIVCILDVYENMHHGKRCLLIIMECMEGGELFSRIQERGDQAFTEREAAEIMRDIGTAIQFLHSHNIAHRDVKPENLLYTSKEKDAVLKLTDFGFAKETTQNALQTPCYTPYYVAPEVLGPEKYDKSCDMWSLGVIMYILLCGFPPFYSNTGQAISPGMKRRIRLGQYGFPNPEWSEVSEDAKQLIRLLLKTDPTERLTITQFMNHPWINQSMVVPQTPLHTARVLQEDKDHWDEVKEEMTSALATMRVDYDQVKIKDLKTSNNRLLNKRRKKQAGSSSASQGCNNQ
Chain of Megakaryocyte-associated tyrosine-protein kinase (P42679 whole entry): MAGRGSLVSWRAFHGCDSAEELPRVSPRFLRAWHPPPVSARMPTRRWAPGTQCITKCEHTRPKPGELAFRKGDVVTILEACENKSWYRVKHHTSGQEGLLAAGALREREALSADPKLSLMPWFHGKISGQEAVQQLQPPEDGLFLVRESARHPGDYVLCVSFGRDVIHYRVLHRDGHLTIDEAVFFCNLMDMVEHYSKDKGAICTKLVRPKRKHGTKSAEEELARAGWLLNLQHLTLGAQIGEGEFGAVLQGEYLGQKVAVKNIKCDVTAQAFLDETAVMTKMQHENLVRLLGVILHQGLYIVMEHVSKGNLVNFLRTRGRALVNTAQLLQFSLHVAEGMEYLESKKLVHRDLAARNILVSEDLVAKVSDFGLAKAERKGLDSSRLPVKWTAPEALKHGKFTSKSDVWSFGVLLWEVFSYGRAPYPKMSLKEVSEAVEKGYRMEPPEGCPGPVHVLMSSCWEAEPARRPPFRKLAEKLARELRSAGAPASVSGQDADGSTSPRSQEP
Chain of Aurora kinase B (Q96GD4 whole entry): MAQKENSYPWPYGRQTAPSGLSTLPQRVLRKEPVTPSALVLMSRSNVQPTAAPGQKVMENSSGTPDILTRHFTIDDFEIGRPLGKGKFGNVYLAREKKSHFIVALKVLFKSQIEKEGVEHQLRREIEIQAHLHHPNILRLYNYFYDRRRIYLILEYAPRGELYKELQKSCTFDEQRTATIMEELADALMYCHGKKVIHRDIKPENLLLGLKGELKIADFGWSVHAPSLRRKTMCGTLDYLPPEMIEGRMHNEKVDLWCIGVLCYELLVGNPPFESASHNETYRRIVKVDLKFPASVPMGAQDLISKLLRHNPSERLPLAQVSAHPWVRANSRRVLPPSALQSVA

SMILES: CCSc1c([N+](=O)[O-])c(=O)oc2ccccc12
AC50 [1]: 23.4 µM (active)

SMILES: C[C@@H]1CN([C@@H](C)CO)C(=O)c2cccc(NC(=O)Nc3ccc(F)cc3)c2O[C@H]1CN(C)S(=O)(=O)c1ccc(Cl)cc1
AC50 [2]: 95.8 µM (active)
AC50 [3]: 27.4 µM (active)
AC50 [4]: 7.24 µM (active)

Ki [5]: 2 µM (active)
Ki [6]: 7.94 µM (active)
Ki [7]: 6.31 µM (active)
Ki [8]: 3.16 µM (active)
Ki [9]: 5.01 µM (active)
Ki [10]: 2 µM (active)
SMILES: Cc1c(F)c(N2CCC(N)C2)nc2[nH]cc(C(=O)O)c(=O)c12 (stereo not given)
